The source of these data is BindingDB's records for doi:10.1016/j.bmcl.2017.01.084 (China Pharmaceutical University, 2017).

Broadly, the EC50 is the concentration that produces a half-maximal response.

The assay can be described thus: Agonist activity at VDR in human HL60 cells assessed as induction of cell differentiation by measuring increase in NBT positive cells by Wright staining based microscopic method.
Turning to `CCn1c(C(=O)NCCCO)ccc1C(CC)(CC)c1ccc(C#CC(O)(CC)CC)c(C)c1`, the concentration for a half-maximal effect (EC50) stood at 137 nM.
For the compound `CCn1cc(C(CC)(CC)c2ccc(C#CC(O)(CC)CC)c(C)c2)cc1C(=O)N[C@@H](C)CO`, the EC50 is 7.3 nM.
Then `CCN(CC)CCNC(=O)c1ccc(C(CC)(CC)c2ccc(C#CC(O)(CC)CC)c(C)c2)n1CC`, with 10 nM.
As to `CCN(CC)CCNC(=O)c1cc(C(CC)(CC)c2ccc(C#CC(O)(CC)CC)c(C)c2)cn1CC`, the EC50 was determined as 7 nM.
The result for `CCN(CC)CCNC(=O)c1ccc(C(CC)(CC)c2ccc(OCC(O)C(C)(C)C)c(C)c2)n1CC` (stereo not drawn) reads 6.5 nM; that for `CCn1c(C(=O)NCCC(=O)OC)ccc1C(CC)(CC)c1ccc(C#CC(O)(CC)CC)c(C)c1`, above 50 nM.
Then `CCN(CC)CCCNC(=O)c1ccc(C(CC)(CC)c2ccc(C#CC(O)(CC)CC)c(C)c2)n1CC`, with 69 nM.
For `CCn1c(C(=O)NCc2ccc(OC)cc2)ccc1C(CC)(CC)c1ccc(C#CC(O)(CC)CC)c(C)c1`, the concentration giving a half-maximal response (EC50) was above 50 nM.
Then `C#CCCOC(=O)c1ccc(C(CC)(CC)c2ccc(C#CC(O)(CC)CC)c(C)c2)n1CC`, with above 50 nM.
For `CCCCC(=O)c1ccc(C(CC)(CC)c2ccc(C#CC(O)(CC)CC)c(C)c2)n1CC`, the concentration giving a half-maximal response (EC50) was above 50 nM.
For the compound `CCn1c(C(=O)NCC(=O)O)ccc1C(CC)(CC)c1ccc(C#CC(O)(CC)CC)c(C)c1`, the concentration giving a half-maximal response (EC50) stood at 9.4 nM.
Turning to `CCn1c(C(=O)N[C@H](C(=O)O)C(C)C)ccc1C(CC)(CC)c1ccc(C#CC(O)(CC)CC)c(C)c1`, the half-maximal effective concentration (EC50) came out at 18 nM.
Take `CCn1c(C(=O)NCCC(=O)O)ccc1C(CC)(CC)c1ccc(C#CC(O)(CC)CC)c(C)c1`: the EC50 was determined as 293 nM.
Take `CCn1cc(C(CC)(CC)c2ccc(C#CC(O)(CC)CC)c(C)c2)cc1C(=O)NCC(=O)OC`: the concentration giving a half-maximal response (EC50) was 288 nM.
Turning to `CCn1cc(C(CC)(CC)c2ccc(C#CC(O)(CC)CC)c(C)c2)cc1C(=O)NCCN(C)C`, the half-maximal effective concentration (EC50) amounted to 19 nM.
Turning to `CCn1cc(C(CC)(CC)c2ccc(C#CC(O)(CC)CC)c(C)c2)cc1C(=O)NCCCN(C)C`, the concentration for a half-maximal effect (EC50) was 142 nM.
Turning to `CCn1cc(C(CC)(CC)c2ccc(C#CC(O)(CC)CC)c(C)c2)cc1C(=O)OCCO`, the EC50 is 13 nM.
As to `CCn1cc(C(CC)(CC)c2ccc(C#CC(O)(CC)CC)c(C)c2)cc1C(=O)NCC(=O)O`, the EC50 amounted to 54 nM.
Turning to `CCn1cc(C(CC)(CC)c2ccc(C#CC(O)(CC)CC)c(C)c2)cc1C(=O)NCCC(=O)O`, the EC50 is above 50 nM.
Turning to `CCn1cc(C(CC)(CC)c2ccc(C#CC(O)(CC)CC)c(C)c2)cc1C(=O)N[C@@H](C(=O)O)C(C)C`, the half-maximal effective concentration (EC50) amounted to 68 nM.
With `CCn1c(C(=O)On2nnc3ccccc32)ccc1C(CC)(CC)c1ccc(C#CC(O)(CC)CC)c(C)c1`, the concentration giving a half-maximal response (EC50) is above 50 nM.
The result for `CCCCC(=O)c1cc(C(CC)(CC)c2ccc(C#CC(O)(CC)CC)c(C)c2)cn1CC` reads above 50 nM; that for `CCn1cc(C(CC)(CC)c2ccc(C#CC(O)(CC)CC)c(C)c2)cc1C(=O)N[C@H](C(=O)O)C(C)C`, 13 nM.
